Data: article PMC10408569, “Recruitment of hexahydroquinoline as anticancer scaffold targeting inhibition of wild and mutants EGFR (EGFR^WT, EGFR^T790M, and EGFR^L858R)” (Journal of Enzyme Inhibition and Medicinal Chemistry, 2023)

Key:
UO-31 = assay: NCI-60 anticancer screening (SRB); assay type: cell-based; conditions: Homo sapiens; UO-31, renal cancer; one dose 10 μM; read-out: Growth Inhibition Percentage (GI %)
NCI-H460 = assay: NCI-60 anticancer screening (SRB); assay type: cell-based; conditions: Homo sapiens; NCI-H460, NSC lung cancer; one dose 10 μM; read-out: Growth Inhibition Percentage (GI %)
SK-MEL-28 = assay: NCI-60 anticancer screening (SRB); assay type: cell-based; conditions: Homo sapiens; SK-MEL-28, melanoma; one dose 10 μM; read-out: Growth Inhibition Percentage (GI %)
SN 12C = assay: NCI-60 anticancer screening (SRB); assay type: cell-based; conditions: Homo sapiens, SN12C; SN 12C, renal cancer; one dose 10 μM; read-out: Growth Inhibition Percentage (GI %)
SF-539 = assay: NCI-60 anticancer screening (SRB); assay type: cell-based; conditions: Homo sapiens; SF-539, CNS cancer; one dose 10 μM; read-out: Growth Inhibition Percentage (GI %)
SF-295 = assay: NCI-60 anticancer screening (SRB); assay type: cell-based; conditions: Homo sapiens; SF-295, CNS cancer; one dose 10 μM; read-out: Growth Inhibition Percentage (GI %)
EKVX = assay: NCI-60 anticancer screening (SRB); assay type: cell-based; conditions: Homo sapiens, NSC lung cancer, one dose 10 μM, read-out: Growth Inhibition Percentage (GI %)
HOP-92 = assay: NCI-60 anticancer screening (SRB); assay type: cell-based; conditions: Homo sapiens; HOP-92, NSC lung cancer; one dose 10 μM; read-out: Growth Inhibition Percentage (GI %)
MCF7 = assay: NCI-60 anticancer screening (SRB); assay type: cell-based; conditions: Homo sapiens; MCF7, breast cancer; one dose 10 μM; read-out: Growth Inhibition Percentage (GI %)
EGFR^WT = EGFR^WT (Homo sapiens, UniProt P00533); assay: EGFR kinase inhibitory assay (HTRF)
HS 578T = assay: NCI-60 anticancer screening (SRB); assay type: cell-based; conditions: Homo sapiens; HS 578T, breast cancer; one dose 10 μM; read-out: Growth Inhibition Percentage (GI %)
HT29 = assay: NCI-60 anticancer screening (SRB); assay type: cell-based; conditions: Homo sapiens, HT-29; HT29, colon cancer; one dose 10 μM; read-out: Growth Inhibition Percentage (GI %)
UACC-62 = assay: NCI-60 anticancer screening (SRB); assay type: cell-based; conditions: Homo sapiens; UACC-62, melanoma; one dose 10 μM; read-out: Growth Inhibition Percentage (GI %)
BT-549 = assay: NCI-60 anticancer screening (SRB); assay type: cell-based; conditions: Homo sapiens; BT-549, breast cancer; one dose 10 μM; read-out: Growth Inhibition Percentage (GI %)
MDA-MB-231 = assay: NCI-60 anticancer screening (SRB); assay type: cell-based; conditions: Homo sapiens; MDA-MB-231, breast cancer; one dose 10 μM; read-out: Growth Inhibition Percentage (GI %)
A498 = assay: NCI-60 anticancer screening (SRB); assay type: cell-based; conditions: Homo sapiens; A498, renal cancer; one dose 10 μM; read-out: Growth Inhibition Percentage (GI %)
CAKI-1 = assay: NCI-60 anticancer screening (SRB); assay type: cell-based; conditions: Homo sapiens; CAKI-1, renal cancer; one dose 10 μM; read-out: Growth Inhibition Percentage (GI %)
M14 = assay: NCI-60 anticancer screening (SRB); assay type: cell-based; conditions: Homo sapiens; M14, melanoma; one dose 10 μM; read-out: Growth Inhibition Percentage (GI %)
COLO 205 = assay: NCI-60 anticancer screening (SRB); assay type: cell-based; conditions: Homo sapiens; COLO 205, colon cancer; one dose 10 μM; read-out: Growth Inhibition Percentage (GI %)
U251 = assay: NCI-60 anticancer screening (SRB); assay type: cell-based; conditions: Homo sapiens, U-251; U251, CNS cancer; one dose 10 μM; read-out: Growth Inhibition Percentage (GI %)
EGFR^T790M = EGFR^T790M (Homo sapiens, UniProt P00533, T790M); assay: biochemical
786-0 = assay: NCI-60 anticancer screening (SRB); assay type: cell-based; conditions: Homo sapiens; 786-0, renal cancer; one dose 10 μM; read-out: Growth Inhibition Percentage (GI %)
TK-10 = assay: NCI-60 anticancer screening (SRB); assay type: cell-based; conditions: Homo sapiens; TK-10, renal cancer; one dose 10 μM; read-out: Growth Inhibition Percentage (GI %)
MALME-3M = assay: NCI-60 anticancer screening (SRB); assay type: cell-based; conditions: Homo sapiens, melanoma, one dose 10 μM, read-out: Growth Inhibition Percentage (GI %)
PC-3 = assay: NCI-60 anticancer screening (SRB); assay type: cell-based; conditions: Homo sapiens; PC-3, prostate cancer; one dose 10 μM; read-out: Growth Inhibition Percentage (GI %)
DU-145 = assay: NCI-60 anticancer screening (SRB); assay type: cell-based; conditions: Homo sapiens; DU-145, prostate cancer; one dose 10 μM; read-out: Growth Inhibition Percentage (GI %)
EGFR^L858R = EGFR^L858R (Homo sapiens, UniProt P00533, L858R); assay: biochemical
CCRF-CEM = assay: NCI-60 anticancer screening (SRB); assay type: cell-based; conditions: Homo sapiens, leukemia, one dose 10 μM, read-out: Growth Inhibition Percentage (GI %)
NCI/ADR-RES = assay: NCI-60 anticancer screening (SRB); assay type: cell-based; conditions: Homo sapiens, ovarian cancer, one dose 10 μM, read-out: Growth Inhibition Percentage (GI %)
IGROV1 = assay: NCI-60 anticancer screening (SRB); assay type: cell-based; conditions: Homo sapiens, IGROV-1; IGROV1, ovarian cancer; one dose 10 μM; read-out: Growth Inhibition Percentage (GI %)
HCT-116 = assay: NCI-60 anticancer screening (SRB); assay type: cell-based; conditions: Homo sapiens; HCT-116, colon cancer; one dose 10 μM; read-out: Growth Inhibition Percentage (GI %)

Sequence of EGFR^L858R (P00533 25-1210 L858R): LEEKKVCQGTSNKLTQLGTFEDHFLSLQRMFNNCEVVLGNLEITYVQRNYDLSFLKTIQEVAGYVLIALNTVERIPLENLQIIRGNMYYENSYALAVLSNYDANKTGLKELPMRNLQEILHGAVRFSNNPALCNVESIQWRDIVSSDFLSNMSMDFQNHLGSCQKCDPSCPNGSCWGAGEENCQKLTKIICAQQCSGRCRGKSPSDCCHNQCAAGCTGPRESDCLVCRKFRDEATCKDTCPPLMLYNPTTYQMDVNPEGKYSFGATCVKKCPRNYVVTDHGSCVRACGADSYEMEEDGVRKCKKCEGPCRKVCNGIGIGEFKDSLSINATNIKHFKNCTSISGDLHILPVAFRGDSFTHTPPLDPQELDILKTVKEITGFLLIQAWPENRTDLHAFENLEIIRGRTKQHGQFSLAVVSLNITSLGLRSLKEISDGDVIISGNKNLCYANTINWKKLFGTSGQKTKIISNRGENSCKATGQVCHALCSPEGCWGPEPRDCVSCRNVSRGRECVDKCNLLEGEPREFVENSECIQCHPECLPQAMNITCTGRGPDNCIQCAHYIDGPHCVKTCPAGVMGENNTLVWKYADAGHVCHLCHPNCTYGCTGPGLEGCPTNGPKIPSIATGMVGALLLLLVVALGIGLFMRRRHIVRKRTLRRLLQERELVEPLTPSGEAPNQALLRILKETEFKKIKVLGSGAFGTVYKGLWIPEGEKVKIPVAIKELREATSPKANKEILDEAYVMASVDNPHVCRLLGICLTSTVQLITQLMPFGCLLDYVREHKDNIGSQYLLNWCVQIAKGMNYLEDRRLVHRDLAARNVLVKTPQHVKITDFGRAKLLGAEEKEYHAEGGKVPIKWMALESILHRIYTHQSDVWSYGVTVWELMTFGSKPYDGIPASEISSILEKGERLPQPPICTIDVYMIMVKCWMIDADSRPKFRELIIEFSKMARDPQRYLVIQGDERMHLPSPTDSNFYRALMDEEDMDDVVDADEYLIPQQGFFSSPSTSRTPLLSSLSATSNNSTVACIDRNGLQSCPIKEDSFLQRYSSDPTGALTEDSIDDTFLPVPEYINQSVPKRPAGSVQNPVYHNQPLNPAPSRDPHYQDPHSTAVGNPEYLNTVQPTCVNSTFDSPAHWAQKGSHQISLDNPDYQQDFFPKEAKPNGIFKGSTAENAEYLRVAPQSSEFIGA
Sequence of EGFR^WT (P00533 25-1210): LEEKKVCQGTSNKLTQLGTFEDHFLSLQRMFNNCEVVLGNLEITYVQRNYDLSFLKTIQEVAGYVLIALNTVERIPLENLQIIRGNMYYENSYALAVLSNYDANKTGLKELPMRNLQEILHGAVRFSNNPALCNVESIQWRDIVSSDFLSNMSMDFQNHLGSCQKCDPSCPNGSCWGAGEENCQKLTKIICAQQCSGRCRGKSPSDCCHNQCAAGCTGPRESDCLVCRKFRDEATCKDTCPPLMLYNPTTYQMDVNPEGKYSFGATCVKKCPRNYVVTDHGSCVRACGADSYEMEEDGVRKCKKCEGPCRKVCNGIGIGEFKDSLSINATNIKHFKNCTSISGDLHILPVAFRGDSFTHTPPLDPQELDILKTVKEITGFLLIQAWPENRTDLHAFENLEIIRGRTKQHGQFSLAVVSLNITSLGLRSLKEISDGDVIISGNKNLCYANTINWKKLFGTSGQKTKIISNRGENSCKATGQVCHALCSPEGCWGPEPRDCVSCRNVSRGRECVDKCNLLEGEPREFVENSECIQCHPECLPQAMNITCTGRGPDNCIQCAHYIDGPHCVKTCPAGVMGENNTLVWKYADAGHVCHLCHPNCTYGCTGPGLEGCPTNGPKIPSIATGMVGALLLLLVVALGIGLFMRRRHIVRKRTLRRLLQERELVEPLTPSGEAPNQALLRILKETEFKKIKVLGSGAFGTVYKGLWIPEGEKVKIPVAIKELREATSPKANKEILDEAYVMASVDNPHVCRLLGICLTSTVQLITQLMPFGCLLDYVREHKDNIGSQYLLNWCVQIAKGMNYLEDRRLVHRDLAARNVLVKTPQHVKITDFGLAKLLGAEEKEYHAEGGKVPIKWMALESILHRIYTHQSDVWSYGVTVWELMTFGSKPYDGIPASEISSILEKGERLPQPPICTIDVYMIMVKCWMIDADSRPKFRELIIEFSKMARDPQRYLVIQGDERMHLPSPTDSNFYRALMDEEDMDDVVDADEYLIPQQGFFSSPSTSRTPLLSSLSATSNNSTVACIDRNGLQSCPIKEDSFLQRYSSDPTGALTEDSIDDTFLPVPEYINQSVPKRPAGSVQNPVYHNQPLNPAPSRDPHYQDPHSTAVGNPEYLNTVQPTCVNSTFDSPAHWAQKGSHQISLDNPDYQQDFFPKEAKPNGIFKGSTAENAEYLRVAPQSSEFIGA
Sequence of EGFR^T790M (P00533 25-1210 T790M): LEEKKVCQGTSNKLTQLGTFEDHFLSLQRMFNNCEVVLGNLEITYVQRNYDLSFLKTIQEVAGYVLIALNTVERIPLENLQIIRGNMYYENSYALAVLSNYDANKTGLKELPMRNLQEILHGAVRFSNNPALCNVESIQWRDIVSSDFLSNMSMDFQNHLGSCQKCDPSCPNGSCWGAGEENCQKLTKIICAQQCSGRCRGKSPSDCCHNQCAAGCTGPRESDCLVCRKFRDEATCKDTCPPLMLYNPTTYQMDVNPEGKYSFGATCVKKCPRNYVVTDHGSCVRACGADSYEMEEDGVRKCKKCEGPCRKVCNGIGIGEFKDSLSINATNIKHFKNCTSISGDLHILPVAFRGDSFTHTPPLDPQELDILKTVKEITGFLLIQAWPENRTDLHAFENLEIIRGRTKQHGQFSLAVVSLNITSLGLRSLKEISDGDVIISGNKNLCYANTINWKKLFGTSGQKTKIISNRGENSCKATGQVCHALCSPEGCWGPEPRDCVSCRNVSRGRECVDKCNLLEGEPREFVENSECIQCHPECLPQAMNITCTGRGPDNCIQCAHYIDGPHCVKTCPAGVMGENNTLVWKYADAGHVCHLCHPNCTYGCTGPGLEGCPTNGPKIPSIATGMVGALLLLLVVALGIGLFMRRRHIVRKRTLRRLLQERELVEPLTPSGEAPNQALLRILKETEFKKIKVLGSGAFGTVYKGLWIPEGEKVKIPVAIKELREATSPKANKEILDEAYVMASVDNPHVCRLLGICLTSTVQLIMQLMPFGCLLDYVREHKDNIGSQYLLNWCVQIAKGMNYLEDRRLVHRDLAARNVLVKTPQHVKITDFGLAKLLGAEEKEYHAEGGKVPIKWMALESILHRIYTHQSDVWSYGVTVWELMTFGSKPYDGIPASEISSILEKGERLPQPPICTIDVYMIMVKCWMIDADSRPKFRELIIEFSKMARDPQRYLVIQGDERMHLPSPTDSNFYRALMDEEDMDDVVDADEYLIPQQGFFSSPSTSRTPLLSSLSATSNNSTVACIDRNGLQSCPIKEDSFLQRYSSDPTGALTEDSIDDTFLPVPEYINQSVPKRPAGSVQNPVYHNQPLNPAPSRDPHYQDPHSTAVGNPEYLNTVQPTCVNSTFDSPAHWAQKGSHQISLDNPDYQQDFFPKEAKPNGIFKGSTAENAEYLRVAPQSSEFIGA

SMILES | inhibition at 10 µM (UO-31) [%] | inhibition at 10 µM (NCI-H460) [%] | inhibition at 10 µM (SK-MEL-28) [%] | inhibition at 10 µM (SN 12C) [%] | inhibition at 10 µM (SF-539) [%] | inhibition at 10 µM (SF-295) [%] | inhibition at 10 µM (EKVX) [%] | inhibition at 10 µM (HOP-92) [%] | inhibition at 10 µM (MCF7) [%] | IC50 (EGFR^WT) [nM] | inhibition at 10 µM (HS 578T) [%] | inhibition at 10 µM (HT29) [%] | inhibition at 10 µM (UACC-62) [%] | inhibition at 10 µM (BT-549) [%] | inhibition at 10 µM (MDA-MB-231) [%] | inhibition at 10 µM (A498) [%] | inhibition at 10 µM (CAKI-1) [%] | inhibition at 10 µM (M14) [%] | inhibition at 10 µM (COLO 205) [%] | inhibition at 10 µM (U251) [%] | further results
CCOC(=O)C1=C(N)N(c2ccc(C)cc2)C2=C(C(=O)CC(C)(C)C2)C1c1ccccc1Br (racemic) [6e, (±)-Ethyl 2-amino-4–(2-bromophenyl)-7,7-dimethyl-1–(4-methylphenyl)-5-oxo-1,4,5,6,7,8-hexahydroquinoline-3-carboxylate] | 24 | 46 | < 10 | 15 | < 10 | < 10 | < 10 | 28 | 43 | 176 ± 70 | < 10 | 37 | 28 | < 10 | < 10 | < 10 | 30 | 17 | 37 | 19 | IC50 (EGFR^T790M): 480 ± 3 nM; inhibition at 10 µM (786-0): 17%; inhibition at 10 µM (TK-10): < 10%; inhibition at 10 µM (MALME-3M): < 10%; inhibition at 10 µM (PC-3): 68%; inhibition at 10 µM (DU-145): < 10%; IC50 (EGFR^L858R): 370 ± 4 nM; inhibition at 10 µM (CCRF-CEM): 60%; inhibition at 10 µM (NCI/ADR-RES): < 10%; inhibition at 10 µM (IGROV1): < 10%; inhibition at 10 µM (HCT-116): 60%
CCOC(=O)C1=C(N)N(c2ccc(Cl)cc2)C2=C(C(=O)CC(C)(C)C2)C1c1ccccc1Br (racemic) [6f, (±)-Ethyl 2-amino-4–(2-bromophenyl)-1–(4-chlorophenyl)-7,7-dimethyl-5-oxo-1,4,5,6,7,8-hexahydroquinoline-3-carboxylate] | 40 | 43 | < 10 | 13 | < 10 | 18 | 25 | 13 | 47 | 313 ± 120 | < 10 | 44 | 36 | 27 | 15 | < 10 | 32 | 24 | 45 | 40 | IC50 (EGFR^T790M): 590 ± 4 nM; inhibition at 10 µM (786-0): 12%; inhibition at 10 µM (TK-10): 22%; inhibition at 10 µM (MALME-3M): 18%; inhibition at 10 µM (PC-3): 71%; inhibition at 10 µM (DU-145): < 10%; IC50 (EGFR^L858R): 480 ± 3 nM; inhibition at 10 µM (CCRF-CEM): 33%; inhibition at 10 µM (NCI/ADR-RES): 14%; inhibition at 10 µM (IGROV1): < 10%; inhibition at 10 µM (HCT-116): 60%
CCOC(=O)C1=C(N)N(c2ccc(Cl)cc2)C2=C(C(=O)CC(C)(C)C2)C1c1ccccc1Cl (racemic) [6c, (±)-Ethyl 2-amino-4–(2-chlorophenyl)-1–(4-chlorophenyl)-7,7-dimethyl-5-oxo-1,4,5,6,7,8-hexahydroquinoline-3-carboxylate] | 51 | 58 | < 10 | 31 | < 10 | 27 | 30 | 29 | 58 | 277 ± 120 | < 10 | 60 | 45 | 40 | 24 | < 10 | 43 | 28 | 62 | 54 | IC50 (EGFR^T790M): 530 ± 4 nM; inhibition at 10 µM (786-0): 15%; inhibition at 10 µM (TK-10): 43%; inhibition at 10 µM (MALME-3M): 30%; inhibition at 10 µM (PC-3): 76%; inhibition at 10 µM (DU-145): < 10%; IC50 (EGFR^L858R): 500 ± 4 nM; inhibition at 10 µM (CCRF-CEM): 40%; inhibition at 10 µM (NCI/ADR-RES): 24%; inhibition at 10 µM (IGROV1): < 10%; inhibition at 10 µM (HCT-116): 66%
